How the values were obtained:
HO HCU mice [1] = conditions: earlier study, cited from earlier work
[2] = mouse, in vivo
Description: (§1) In another exemplary method, the transsulfuration pathway and methionine-folate cycle pathways, as show in the sematic illustrated in FIG. 18A, were assessed. In brief, three experimental groups (n=8 for each group) of male mice consisting of either untreated WT controls or HO HCU mice in the presence or absence of betaine treatment. Betaine was administered by dissolving the compound in drinking water at 30 g/l and was supplied ad libitum to the mice for one week. Treatment water was replenished twice per week.
To investigate the effects of these treatments upon the hepatic regulatory changes in enzyme expression induced by HCU, the human transgenic HO mouse model of HCU was used. In brief, experimental groups consisting of 8 HO mice on a C57BL/6J background and 8 C57BL/6J WT littermate control mice bred in house were used. Mice in both groups were male and aged between 3 and 4 months. Except where otherwise stated, all mice were maintained on standard chow. All diets were administered using a paired-feeding design to ensure isocaloric intake between all experimental groups and body weights were measured once per week. There was no significant difference in body weight between mice in any of the experimental groups. […]

ApoA-1 = ApoA-1 expression in HO model; assay type: in vivo, mouse; conditions: one-week treatment protocol
Description: as §1

HO HCU mice [3] = experiment: Plasma metabolite levels (tHcy, methionine cycle amino acids, SAM, SAH) in HO HCU mice; assay type: in vivo, mouse
Description: It is noted that WT mice (n=6) include untreated controls. HO HCU mice (N=8, 4 of each sex in each group) were either untreated or treated with about 3.0% (w/v) glycine w/v or about 3.0% (w/v) serine given in drinking water supplied ad libitum for one week. Plasma samples were taken and Hcy and cysteine levels were determined. *** denotes a P value <0.0001.
In accordance with these methods, HO HCU mice (N=8, 4 of each sex in each group) were treated with either about 3.0% glycine w/v or about 3.0% w/v serine given in drinking water supplied ad libitum for one week in the presence and absence of about 3.0% w/v betaine. Plasma samples were taken from the mice at various times and Hcy levels were determined.
Plasma Hcy levels were determined from HO HCU mice (n=8 per group) in the presence and absence of either about 5.0% w/v sodium formate alone or in combination with about 3.0% betaine given in drinking water given ad libitum.
In one exemplary method, mice were given zinc in drinking water. For this example, 8 HO HCU mice were provided drinking water supplemented with zinc (e.g. 0.05% w/v Zinc sulfate) given ad libitum for one week.
as §1
(§2) A comparative reference data set was generated for these mice by examining plasma levels of tHcy, methionine, cysteine, serine, glycine, dimethylglycine, methylglycine (MG, SAM and SAH). In brief, determination of plasma levels of amino acids relevant to the methionine cycle were determined using methods similar to those described in Stabler et al., Blood. 81 (1993) 3404-3413, incorporated in its entirety herein. Determination of hepatic 5-methylTHF was performed by liquid chromatography-tandem mass spectrometry using methods similar to those described in Witham et al., PLoS One. 8 (2013) e77923, incorporated in its entirety herein. The global metabolomic analysis of methionine and folate cycle related metabolites was carried out by Metabolon, Inc. Briefly, sample preparation was performed utilizing the automated MicroLab STAR® system. Sample preparation was performed using a proprietary series of organic and aqueous extractions to remove the protein fraction while allowing maximum recovery of small molecules. The resulting extract was divided into two fractions: one for analysis by liquid chromatography and one for analysis by gas chromatography. Each sample was then frozen and dried under vacuum. The LC/mass spectrometer portion of the platform was based on a Waters ACQUITY UPLC and a Thermo-Finnigan LTQ mass spectrometer, which consisted of an electrospray ionization source and linear ion-trap mass analyzer. Samples were analyzed on a Thermo-Finnigan Trace DSQ fast-scanning single-quadrupole mass spectrometer using electron impact ionization. Identification of known chemical entities was based on comparison to library entries of authenticated standards. Tissue polyamines putrescine, spermidine and spermine and 5-methylthioadenosine (MTA) were determined by liquid chromatography-tandem mass spectrometry using methods similar to those described in Stevens et al., J Chromatogr A 1217 (2010) 3282-3288, incorporated in its entirety herein.

HO HCU mice [4] = experiment: Hepatic metabolomic analysis / hepatic 5-methylTHF in HO HCU mice; assay type: in vivo, mouse
Text: As illustrated in one example, see FIG. 2, HCU (HO) induced a significant accumulation of hepatic 5-methyl-THF which by sequestering one carbon units had the potential to decrease the available pool of THF available to the betaine pathway for lowering Hcy. FIG. 2 illustrates an example of hepatic metabolomic analysis of HO and WT controls compared to an HO mouse treated with betaine. Comparative hepatic metabolomic analysis of HO mice and WT controls illustrated about a 10-fold accumulation in the MTHFR product 5-MeTHF. Betaine treatment alone reduced 5-MeTHF by about 15-25%. Data illustrated in FIG. 2 was derived from the livers of 8 (4 male, 4 female) individual HO or WT or HO Betaine mice per group. Betaine was given at 2% w/v in drinking water given ad libitum. P<0.0001 vs WT.
as §2

SAHH = experiment: Western blotting of hepatic SAHH expression; assay type: in vivo, mouse; conditions: HO mice, 30 g/l in drinking water ad libitum, one week
Description: (§3) To investigate the effects of these treatments upon the hepatic regulatory changes in enzyme expression induced by HCU, the human transgenic HO mouse model of HCU was used. In brief, experimental groups consisting of 8 HO mice on a C57BL/6J background and 8 C57BL/6J WT littermate control mice bred in house were used. Mice in both groups were male and aged between 3 and 4 months. Except where otherwise stated, all mice were maintained on standard chow. All diets were administered using a paired-feeding design to ensure isocaloric intake between all experimental groups and body weights were measured once per week. There was no significant difference in body weight between mice in any of the experimental groups. Betaine and taurine were in this example, both administered by dissolving these compounds in drinking water at 30 g/l ([…] 3% w/v) and were supplied ad libitum for one week. Treatment water was replenished twice per week.
Western blotting analysis of SAHH, MTHFR and SHMT2 expression was performed in liver samples from HO mice in the presence and absence of betaine or taurine treatment.

MAT1A = experiment: Western blotting of hepatic MAT1A expression; assay type: in vivo, mouse; conditions: HO HCU mice, 30 g/l in drinking water ad libitum, one week
Description: as §3
These observations are the first to report betaine and taurine acting to regulate expression of these processes. Therefore, this observation supports that taurine alone or in combination with betaine and other treatments for genetic homocystinuria are viable options for avoiding dietary restraints and treating these conditions.

[5] = HO HCU mice, betaine 30 g/l in drinking water, one week
[6] = HO model, betaine treatment, P<0.0001
[7] = HO HCU mice, one week of betaine treatment

C[N+](C)(C)CC(=O)O [betaine, N,N,N-trimethylglycine]
hypercoagulative phenotype after a longer period of treatment (HO HCU mice [1]; HCU mice, longer period of betaine treatment): return to the hypercoagulative phenotype
hypercoagulative phenotype (HO HCU mice [1]; mouse model of HCU, betaine treatment): significantly ameliorated the hypercoagulative phenotype
tolerability of doses [2]: well tolerated
ApoA-1 expression (ApoA-1): increase ApoA-1 expression
increase of plasma Met compared to untreated HCU mice (HO HCU mice [3]; [5]): 3 fold
plasma DMG (HO HCU mice [3]; [5]): strongly increased
plasma MG (HO HCU mice [3]; [5]): strongly increased
plasma SAH (HO HCU mice [3]; [5]): significantly decreased, but not normalized
plasma SAM (HO HCU mice [3]; [5]): significantly decreased, but not normalized
plasma glycine (HO HCU mice [3]; [5]): did not change significantly
plasma serine (HO HCU mice [3]; [5]): did not change significantly
decrease in plasma tHcy (HO HCU mice [3]; HO HCU mice, betaine 30 g/l in drinking water, one week, P<0.0001): ~60%
depletion of plasma total cysteine (HO HCU mice [3]; HO HCU mice, betaine 30 g/l in drinking water, one week, remained lower than WT): significantly ameliorated
decrease in AdoHcy levels (HO HCU mice [3]; [6]): fivefold decrease
plasma DMG (HO HCU mice [3]; [6]): increase
plasma MG (HO HCU mice [3]; [6]): increase
plasma cysteine (HO HCU mice [3]; [6]): increase
plasma methionine (HO HCU mice [3]; [6]): increase
decrease in plasma AdoMet (HO HCU mice [3]; HO model, betaine treatment, P=0.0039): 40%
reduction of Hcy levels by standard treatment alone (HO HCU mice [3]; betaine alone, as previously observed): 15-25%
HCU-induced decrease in hepatic N-acetylcysteine (HO HCU mice [4]; [7]): reversed
HCU-induced decrease in hepatic cysteine (HO HCU mice [4]; [7]): reversed
hepatic N-acetylserine (HO HCU mice [4]; [7]): Neither of these metabolites were significantly altered
hepatic SAH (HO HCU mice [4]; [7]): did not change significantly
hepatic SAM (HO HCU mice [4]; [7]): did not change significantly
hepatic methionine compared to untreated HO mice (HO HCU mice [4]; [7]): no detectable effect
hepatic serine (HO HCU mice [4]; [7]): Neither of these metabolites were significantly altered
increase of hepatic DMG (HO HCU mice [4]; [7]): 3 to 4 fold
increase of hepatic MG (HO HCU mice [4]; [7]): 3 to 4 fold
lowering of hepatic N-acetlymethionine compared to untreated HO HCU mice (HO HCU mice [4]; [7]): 23%
lowering of hepatic tHcy (HO HCU mice [4]; [7]): approximately 20%
reduction of hepatic 5-MeTHF (HO HCU mice [4]; HO mice, betaine 2% w/v in drinking water ad libitum): 15-25%
HCU-mediated induction of hepatic SAHH expression (SAHH): completely reversed
hepatic MAT1a expression (MAT1A): induced expression

From US12702654B2, “Compositions and methods for treating homocystinuria and other conditions using polyamines” (THE REGENTS OF THE UNIVERSITY OF COLORADO, priority 2020, dated 2026)
